Read-outs that look alike come from different tables or passages of the source.
Legend:
HIV-1 wild-type strain = test: General antiviral assay, cell-based virus replication in MT4-LTR-EGFP cells, wild-type strain
Procedure: (§1) MT4-LTR-EGFP cells were obtained by transfecting MT4 cells with a selectable construct encompassing the sequences coding for the HIV long terminal repeat (LTR) as a promoter for the expression of enhanced green fluorescent protein (EGFP) and subsequent selection of permanently transfected cells.
(§2) The antiviral activity on different HIV-1 strains, was determined in a cell-based virus replication assay. Here MT4-LTR-EGFP cells (150,000 cells/ml) are infected (multiplicity of infection [MOI] of 0.0025) in the presence or absence of different inhibitor concentrations. Two methodologies for read-out were used, either quantification of GFP-fluoresence on day 3 post-infection, or quantification of cell-viability using rezazurin (as described by Fields, R. D., and M. V. Lancaster (1993) Am. Biotechnol. Lab. 11:48-50) on day 4 post infection.

[1] = tested on: HIV-1 Strain A (M046I, I084V); test: microbe, parasite or virus in culture; type: cell-based; conditions: clinical isolate Strain A; read-out: A EC50
Procedure: as §1, §2
(§3) In the following Table, Strains A, B, and C are clinical isolates that include the following protease inhibitor resistance mutations in the protease domain (background mutations are not mentioned).

[2] = tested on: HIV-1 Strain B (M046I, I050V); test: microbe, parasite or virus in culture; type: cell-based; conditions: clinical isolate Strain B; read-out: B EC50
Procedure: as §1, §2, §3

[3] = tested on: HIV-1 Strain C (G048G/V, V082A); test: microbe, parasite or virus in culture; type: cell-based; conditions: clinical isolate Strain C; read-out: C EC50
Procedure: as §1, §2, §3

mock-infected MT4 cells = test: General toxicity assay on mock-infected MT4 cells with CMV-EGFP reporter (CC50); type: cell-based
HIV-1 IIIB = test: 50% HS-Rezazurin: antiviral assay in the presence of 50% human serum, MT-4 cells, resazurin cell viability; type: cell-based
Procedure: For the Antiviral assay in the presence of 50% human serum MT-4 cells were infected with HIV-1 IIIB at a MOI of 0.001 to 0.01 CCID50/cell in RPMI1640 medium. Following 1 h of incubation, cells were washed and plated into a 96-well plate containing serial dilutions of compound in the presence of 10% fetal calf serum (FCS), or 50% human serum. After 4 days incubation, the EC50 in the presence of 50% human serum was determined by a cell viability assay using resazurin.
The last column lists the results for the wild-type strain IIB in the presence of 50% human serum MT-4 cells.

[4] = wild-type strain IIIB, MT4-LTR-EGFP cells
[5] = mock-infected MT4 cells with CMV-EGFP reporter, read-out: TOX-MT4CMV (CC50)
[6] = MT4LTR cells, read-out: TOX-MT4LTR (CC50)

| Compound | EC50 (HIV-1 wild-type strain; [4]) | EC50 [1] | EC50 [2] | EC50 [3] | CC50 (mock-infected MT4 cells; [5]) | EC50 (HIV-1 IIIB) | CC50 (mock-infected MT4 cells; [6]) | EC50 (HIV-1 wild-type strain; read-out: HIV-IIIB EC50) | CC50 (mock-infected MT4 cells; read-out: TOX-MT4CMV (CC50)) |
| --- | --- | --- | --- | --- | --- | --- | --- | --- | --- |
| COC(=O)N[C@H](C(=O)N[C@@H](Cc1ccc(-c2cncc(N(C)C)n2)cc1)[C@@H](O)C[C@@H](Cc1ccccc1F)C(=O)N[C@H]1c2cc(Cl)ccc2OC[C@H]1O)C(C)(C)C [Compound 25] | 4.9 nM | 4.6 nM | 2.7 nM | 2.5 nM | > 32000 nM | 26.4 nM |  |  |  |
| COC(=O)N[C@H](C(=O)N[C@@H](Cc1ccc(-c2ccc(OC)nc2)cc1)[C@@H](O)C[C@@H](Cc1cccc(OC(F)(F)F)c1)C(=O)N[C@H]1[C@H](C)CCC[C@H]1O)C(C)(C)C [Compound 94] | 0.9 nM | 1.9 nM | 0.8 nM | 1.4 nM |  | 7.1 nM | > 32000 nM |  |  |
| CCc1ncc(-c2ccc(CC(NC(=O)C(NC(=O)OC)C(C)(C)C)C(O)CC(Cc3ccccc3F)C(=O)NC3c4cc(Cl)ccc4OCC3O)cc2)s1 (stereo not shown) [Compound 14] | 3 nM | 3.5 nM | 2.1 nM | 1.3 nM | > 32000 nM | 24.6 nM |  |  |  |
| COC(=O)N[C@H](C(=O)N[C@@H](Cc1ccc(-c2ccnc(C(F)(F)F)c2)cc1)[C@@H](O)C[C@@H](Cc1ccccc1F)C(=O)N[C@H]1c2cc(Cl)ccc2OC[C@H]1O)C(C)(C)C [Compound 31] | 7 nM | 5 nM | 3.2 nM | 3.4 nM | > 32000 nM | 26.4 nM |  |  |  |
| COC(=O)NC(C(=O)NC(Cc1ccc(-c2ccnc(C)c2)cc1)C(O)CC(Cc1cccc(Cl)c1)C(=O)NC1c2ccccc2OCC1O)C(C)(C)C (stereo not shown) [Compound 1] |  | 5.7 nM | 4.8 nM | 3.7 nM | > 32000 nM | 39.3 nM |  | 7.7 nM |  |
| COC(=O)N[C@H](C(=O)N[C@@H](Cc1ccc(-c2ccc(N(C)C)nc2)cc1)[C@@H](O)C[C@@H](Cc1ccccc1F)C(=O)N[C@H]1c2ccc(Cl)cc2OC[C@H]1O)C(C)(C)C [Compound 86] | 2.6 nM | 7.5 nM | 1.4 nM | 1.3 nM |  | 17.1 nM | > 32000 nM |  |  |
| CN(C)c1ccc(-c2ccc(CC(NC(=O)C(NC(=O)CN3CCCC3)C(C)(C)C)C(O)CC(Cc3ccccc3F)C(=O)NC3c4cc(Cl)ccc4OCC3O)cc2)cn1 (stereo not shown) [Compound 19] | 5.3 nM | 3.7 nM | 2.4 nM | 1.8 nM | > 27000 nM | 22.1 nM |  |  |  |
| COC(=O)N[C@H](C(=O)N[C@@H](Cc1ccc(-c2ccc(N(C)C)nc2)cc1)[C@@H](O)C[C@@H](Cc1ccccc1F)C(=O)N[C@H]1c2cc(F)ccc2OC[C@H]1O)C(C)(C)C [Compound 33] | 2.5 nM | 1.5 nM | 1 nM | 0.9 nM | > 32000 nM | 9.8 nM |  |  |  |
| COCCNC(=O)[C@@H](NC(=O)[C@H](Cc1cccc(F)c1)C[C@H](O)[C@H](Cc1ccc(-c2ccc(OC)nc2)cc1)NC(=O)[C@@H](NC(=O)OC)C(C)(C)C)C(C)(C)C [Compound 92] | 2.6 nM | 4.2 nM | 1.8 nM | 2.9 nM | > 32000 nM | 8.4 nM | > 32000 nM |  |  |
| CN(C)c1ccc(-c2ccc(C[C@H](NC(=O)O[C@H]3CO[C@H]4OCC[C@H]43)[C@@H](O)C[C@@H](Cc3ccccc3F)C(=O)N[C@H]3c4cc(F)ccc4OC[C@H]3O)cc2)cn1 [Compound 68] | 3 nM | 2.2 nM | 1.5 nM | 1.3 nM | > 32000 nM | 9.4 nM |  |  |  |
| COC(=O)NC(C(=O)NC(Cc1ccc(-c2ccc(N(C)C)nc2)cc1)C(O)CC(Cc1ccccc1F)C(=O)NC1c2cc(Cl)ccc2OCC1O)C(C)(C)C (stereo not shown) [Compound 8] | 1.8 nM | 2 nM | 1.2 nM | 1 nM | > 32000 nM | 12.4 nM | > 49000 nM |  |  |
| COc1ccc(-c2ccc(C[C@H](NC(=O)O[C@H]3CO[C@H]4OCC[C@H]43)[C@@H](O)C[C@@H](Cc3ccccc3F)C(=O)N[C@H]3c4cc(Cl)ccc4OC[C@H]3O)cc2)cn1 [Compound 72] | 1.5 nM | 0.8 nM | 0.8 nM | 0.5 nM |  | 5.8 nM | > 32000 nM |  |  |
| CN(C)c1ccc(-c2ccc(C[C@H](NC(=O)[C@@H](NC(=O)C3(C#N)CC3)C(C)(C)C)[C@@H](O)C[C@@H](Cc3ccccc3F)C(=O)N[C@H]3c4cc(F)ccc4OC[C@H]3O)cc2)cn1 [Compound 35] | 2.1 nM | 4 nM | 2.2 nM | 2 nM |  | 8.4 nM | > 32000 nM |  | > 32000 nM |
| COCCNC(=O)[C@@H](NC(=O)[C@H](Cc1ccccc1Cl)C[C@H](O)[C@H](Cc1ccc(-c2ccc(OC)nc2)cc1)NC(=O)[C@@H](NC(=O)OC)C(C)(C)C)C(C)(C)C [Compound 98] | 2.1 nM | 3.7 nM | 1 nM | 2.2 nM |  | 11.2 nM | > 32000 nM |  |  |
| COC(=O)N[C@H](C(=O)N[C@@H](Cc1ccc(-c2cnc(N(C)C)nc2)cc1)[C@@H](O)C[C@@H](Cc1ccccc1Cl)C(=O)N[C@H]1c2cc(F)ccc2OC[C@H]1O)C(C)(C)C [Compound 63] | 1.5 nM | 1.2 nM | 0.7 nM | 0.6 nM |  | 9.4 nM | > 32000 nM |  |  |
| COc1ccc(-c2ccc(C[C@H](NC(=O)[C@@H](NC(=O)C3(C#N)CC3)C(C)(C)C)[C@@H](O)C[C@@H](Cc3ccccc3F)C(=O)N[C@H]3c4cc(Cl)ccc4OC[C@H]3O)cc2)cn1 [Compound 47] | 3.2 nM | 11.1 nM | 6.8 nM | 5.5 nM |  | 10.4 nM | > 32000 nM |  |  |
| COC(=O)N[C@H](C(=O)N[C@@H](Cc1ccc(-c2ccc(N(C)C)nc2)cc1)[C@@H](O)C[C@@H](Cc1cccc(F)c1)C(=O)N[C@H]1c2ccccc2OC[C@H]1O)C(C)(C)C [Compound 36] | 2.9 nM | 2.4 nM | 1.4 nM | 1.3 nM | > 32000 nM | 14.3 nM | > 32000 nM |  |  |
| COC(=O)N[C@H](C(=O)N[C@@H](Cc1ccc(-c2cnc(C)s2)cc1)[C@@H](O)C[C@@H](Cc1ccccc1F)C(=O)N[C@H]1[C@H](C)CC[C@H]1O)C(C)(C)C [Compound 83] | 4 nM | 8.3 nM | 2.5 nM | 2.7 nM | > 32000 nM | 14.3 nM |  |  |  |
| COC(=O)NC(C(=O)NC(Cc1ccc(-c2ccc(N(C)C)nc2)cc1)C(O)CC(Cc1cccc(Cl)c1)C(=O)NC1c2ccccc2OCC1O)C(C)(C)C (stereo not shown) [Compound 2] | 3 nM | 3.3 nM | 2.2 nM | 1.1 nM | > 32000 nM | 19.7 nM |  |  |  |
